One experiment addresses T1, IKZF2 (Homo sapiens, UniProt Q96SW2+Q9UKS7).
T1 construct: endogenous in cells; host or cells: human PBMCs (Milecell Biotechnologies)
Description: Western-blot assay, substrate protein in hPBMCs. It counts as cell-based. As to conditions: hPBMC cells, 24 hours, tested at 50 nM and 500 nM, table does not say which. In short, it runs like this: (§1)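 Protein levels read by Western blot of lysates from human PBMCs (1×10^6 cells/mL) treated 24 h. Percent remaining is target band over loading-control band, normalised to DMSO-treated cells; DC50 is the concentration halving DMSO-control band intensity, estimated by curve fit.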

A further experiment concerns the target T2, CK1α (Homo sapiens, UniProt P48729+Q96SW2).
T2 construct: endogenous in cells; host or cells: human PBMCs (Milecell Biotechnologies)
Kind of experiment: Western-blot assay, substrate protein in hPBMCs. The class given is cell-based. To be noted: hPBMC cells, 24 hours, tested at 50 nM and 500 nM, table does not say which. In short, it runs like this:
as §1

For another experiment, the target named is T3, Wee1 (Homo sapiens, UniProt P30291+Q96SW2).
T3 construct: endogenous in cells; host or cells: human PBMCs (Milecell Biotechnologies)
Description: Western-blot assay, substrate protein in hPBMCs. It counts as cell-based. As to conditions: hPBMC cells, 24 hours, tested at 50 nM and 500 nM, table does not say which. In a few lines:
as §1

For another experiment, the target named is T4, GSPT1 (Homo sapiens, UniProt P15170+Q96SW2).
T4 construct: endogenous in cells; host or cells: human PBMCs (Milecell Biotechnologies)
Kind of experiment: Western-blot assay, substrate protein in hPBMCs. As to conditions: hPBMC cells, 24 hours, tested at 50 nM and 500 nM, table does not say which. The class given is cell-based. In a few lines: as §1

In another experiment the target is T5, IKZF1 (Homo sapiens, UniProt Q13422+Q96SW2).
T5 construct: endogenous in cells; host or cells: human PBMCs (Milecell Biotechnologies)
Description: Western-blot assay, substrate protein in hPBMCs. It counts as cell-based. As to conditions: hPBMC cells, 24 hours, tested at 50 nM and 500 nM, table does not say which. In short, it runs like this: (§2)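 hPBMCs (1×10^6 cells/mL) exposed 24 h to compound at 50 nM and 500 nM, lysed, and probed by Western blot. Band grayscale normalized to internal control gives % protein remaining versus DMSO; DC50 from concentration-response fit at half DMSO band intensity.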

A further experiment deals with T6, IKZF3 (Homo sapiens, UniProt Q96SW2+Q9UKT9).
T6 construct: endogenous in cells; host or cells: human PBMCs (Milecell Biotechnologies)
Description: Western-blot assay, substrate protein in hPBMCs. To be noted: hPBMC cells, 24 hours, tested at 50 nM and 500 nM, table does not say which. It counts as cell-based. In a few lines:
as §2

Another experiment deals with MV-4-11. Kind of experiment: Half inhibitory concentration (IC50) against tumor cells, Cell Counting Kit-8. It counts as cell-based. To be noted: Homo sapiens, MV4-11, CCK-8, 96 h treatment, read-out: inhibitory activity (IC50, nM) against tumor cells proliferation. The method, then: The tumor cells used herein were cultured in a cell culture medium listed in table A at 37° C. in an incubator with 5% CO2.
After the cells were treated with the compounds of the present disclosure for a period of time, the cell viability detection reagent was added to the culture medium for cell viability assessment according to the instructions provided with the CCK-8 kit. […] The growth inhibition of the compounds of the present disclosure on cells was plotted by Prism Graphpad software, and the IC50 values of the compounds of the present disclosure were calculated therefrom.
For orientation: Tetrazolium assays rely on reduction of a dye to a coloured formazan, in cell work by metabolically active cells.

For experiment [1], the target named is T7, human Cereblon WT GST-tagged protein (Homo sapiens, UniProt Q96SW2).
T7 construct: purchased CISBIO 64BDCRBNPEH
Description: CRBN-binding affinity, HTRF (CEREBLON BINDING kit). As to conditions: displacement of Thalidomide-Re reagent, 3 hours at room temperature. In a few lines:
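HTRF competition format: compound, GST-tagged wild-type human Cereblon, Thalidomide-Re tracer and GST Eu antibody were combined in PROTAC binding buffer. Binding was derived from emission at 620 nm relative to blank and solvent control wells.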

T1 sequence (Q9UKS7 whole entry): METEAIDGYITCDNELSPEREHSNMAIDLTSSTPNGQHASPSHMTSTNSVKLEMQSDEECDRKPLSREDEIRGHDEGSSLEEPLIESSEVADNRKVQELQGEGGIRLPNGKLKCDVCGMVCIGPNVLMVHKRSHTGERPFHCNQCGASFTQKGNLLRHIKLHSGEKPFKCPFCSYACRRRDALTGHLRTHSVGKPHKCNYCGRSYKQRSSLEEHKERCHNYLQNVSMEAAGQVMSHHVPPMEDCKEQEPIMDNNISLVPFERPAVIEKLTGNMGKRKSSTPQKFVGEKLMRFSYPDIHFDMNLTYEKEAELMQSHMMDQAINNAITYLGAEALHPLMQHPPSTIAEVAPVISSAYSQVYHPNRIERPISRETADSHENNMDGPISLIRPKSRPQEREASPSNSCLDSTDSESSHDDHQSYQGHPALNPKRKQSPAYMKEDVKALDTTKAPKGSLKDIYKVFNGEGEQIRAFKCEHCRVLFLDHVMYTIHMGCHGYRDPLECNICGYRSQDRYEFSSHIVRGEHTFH
T1 sequence (Q96SW2 whole entry): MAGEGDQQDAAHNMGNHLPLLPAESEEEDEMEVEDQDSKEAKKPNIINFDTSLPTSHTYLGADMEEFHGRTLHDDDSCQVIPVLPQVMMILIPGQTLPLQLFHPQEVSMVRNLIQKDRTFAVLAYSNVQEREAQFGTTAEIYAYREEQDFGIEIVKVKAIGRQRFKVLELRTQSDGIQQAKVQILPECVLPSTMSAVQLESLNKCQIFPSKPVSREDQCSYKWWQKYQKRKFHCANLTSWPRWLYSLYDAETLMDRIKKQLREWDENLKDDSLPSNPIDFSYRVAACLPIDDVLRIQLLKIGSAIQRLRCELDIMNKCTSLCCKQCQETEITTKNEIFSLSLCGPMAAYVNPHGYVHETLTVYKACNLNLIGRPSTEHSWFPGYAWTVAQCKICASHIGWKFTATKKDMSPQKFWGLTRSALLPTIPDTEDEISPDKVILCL
T1 sequence (Q16531 whole entry partner): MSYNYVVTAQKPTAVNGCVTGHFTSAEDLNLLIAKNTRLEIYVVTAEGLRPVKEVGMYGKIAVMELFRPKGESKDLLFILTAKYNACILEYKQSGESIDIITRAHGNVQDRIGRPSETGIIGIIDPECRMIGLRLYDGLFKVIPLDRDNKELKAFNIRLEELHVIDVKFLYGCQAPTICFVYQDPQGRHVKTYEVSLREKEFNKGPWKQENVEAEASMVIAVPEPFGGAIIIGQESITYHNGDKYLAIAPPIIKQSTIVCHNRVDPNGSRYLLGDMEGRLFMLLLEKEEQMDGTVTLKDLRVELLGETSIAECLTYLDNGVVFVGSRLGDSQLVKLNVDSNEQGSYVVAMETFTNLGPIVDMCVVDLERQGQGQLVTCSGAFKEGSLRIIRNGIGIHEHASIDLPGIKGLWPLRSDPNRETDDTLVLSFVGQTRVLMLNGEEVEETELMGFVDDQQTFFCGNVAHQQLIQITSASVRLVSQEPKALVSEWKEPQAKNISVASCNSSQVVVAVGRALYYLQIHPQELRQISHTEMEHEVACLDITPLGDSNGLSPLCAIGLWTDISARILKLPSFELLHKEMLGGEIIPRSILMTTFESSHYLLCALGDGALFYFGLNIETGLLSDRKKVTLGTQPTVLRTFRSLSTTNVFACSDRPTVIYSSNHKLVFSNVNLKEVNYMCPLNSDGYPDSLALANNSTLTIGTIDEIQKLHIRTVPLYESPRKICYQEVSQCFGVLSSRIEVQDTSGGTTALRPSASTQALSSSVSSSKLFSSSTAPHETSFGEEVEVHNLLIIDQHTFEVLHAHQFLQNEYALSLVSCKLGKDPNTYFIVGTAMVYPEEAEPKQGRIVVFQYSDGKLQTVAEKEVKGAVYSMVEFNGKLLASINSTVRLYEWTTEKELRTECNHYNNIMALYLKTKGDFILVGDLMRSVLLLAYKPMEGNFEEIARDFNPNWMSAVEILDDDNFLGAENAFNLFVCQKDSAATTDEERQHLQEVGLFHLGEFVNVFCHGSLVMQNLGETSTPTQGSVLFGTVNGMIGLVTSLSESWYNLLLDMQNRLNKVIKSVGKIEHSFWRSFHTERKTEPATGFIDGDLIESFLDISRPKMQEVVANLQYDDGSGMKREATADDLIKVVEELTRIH
T3 sequence (P30291 whole entry): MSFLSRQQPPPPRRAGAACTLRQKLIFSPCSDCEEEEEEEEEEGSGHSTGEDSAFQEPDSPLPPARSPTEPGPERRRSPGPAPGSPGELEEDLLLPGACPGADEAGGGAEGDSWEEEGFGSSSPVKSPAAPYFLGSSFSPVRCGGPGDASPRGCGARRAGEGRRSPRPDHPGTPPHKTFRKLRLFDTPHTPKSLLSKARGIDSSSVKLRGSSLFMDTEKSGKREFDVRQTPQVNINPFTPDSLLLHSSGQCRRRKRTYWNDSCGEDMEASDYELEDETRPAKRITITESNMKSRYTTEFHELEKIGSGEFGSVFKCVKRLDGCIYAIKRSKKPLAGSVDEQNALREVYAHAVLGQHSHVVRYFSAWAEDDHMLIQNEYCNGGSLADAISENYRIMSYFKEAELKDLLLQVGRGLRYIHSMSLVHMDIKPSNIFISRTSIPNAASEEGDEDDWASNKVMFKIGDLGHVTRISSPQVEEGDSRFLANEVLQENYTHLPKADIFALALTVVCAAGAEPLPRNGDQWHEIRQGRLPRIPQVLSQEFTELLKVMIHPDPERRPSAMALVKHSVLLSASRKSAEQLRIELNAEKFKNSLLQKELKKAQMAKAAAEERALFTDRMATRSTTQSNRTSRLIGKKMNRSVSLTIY
T3 sequence (Q96SW2 whole entry): as the sequence (Q96SW2 whole entry) above
T3 sequence (Q16531 whole entry partner): as the sequence (Q16531 whole entry partner) above
T6 sequence (Q9UKT9 whole entry): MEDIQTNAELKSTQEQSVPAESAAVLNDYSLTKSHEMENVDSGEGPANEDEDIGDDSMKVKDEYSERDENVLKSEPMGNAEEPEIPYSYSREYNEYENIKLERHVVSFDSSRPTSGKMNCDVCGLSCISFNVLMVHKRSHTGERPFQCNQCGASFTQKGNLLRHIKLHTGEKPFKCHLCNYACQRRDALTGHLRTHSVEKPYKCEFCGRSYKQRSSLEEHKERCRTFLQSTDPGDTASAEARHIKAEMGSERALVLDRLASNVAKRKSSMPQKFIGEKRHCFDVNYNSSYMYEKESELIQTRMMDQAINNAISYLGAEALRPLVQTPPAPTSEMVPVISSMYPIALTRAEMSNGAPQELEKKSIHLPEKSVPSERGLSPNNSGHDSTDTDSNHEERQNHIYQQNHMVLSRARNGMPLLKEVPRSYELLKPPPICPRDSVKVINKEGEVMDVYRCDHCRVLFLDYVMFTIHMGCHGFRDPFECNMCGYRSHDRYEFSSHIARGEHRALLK
T6 sequence (Q96SW2 whole entry): as the sequence (Q96SW2 whole entry) above
T6 sequence (Q16531 whole entry partner): as the sequence (Q16531 whole entry partner) above
T2 sequence (P48729 whole entry): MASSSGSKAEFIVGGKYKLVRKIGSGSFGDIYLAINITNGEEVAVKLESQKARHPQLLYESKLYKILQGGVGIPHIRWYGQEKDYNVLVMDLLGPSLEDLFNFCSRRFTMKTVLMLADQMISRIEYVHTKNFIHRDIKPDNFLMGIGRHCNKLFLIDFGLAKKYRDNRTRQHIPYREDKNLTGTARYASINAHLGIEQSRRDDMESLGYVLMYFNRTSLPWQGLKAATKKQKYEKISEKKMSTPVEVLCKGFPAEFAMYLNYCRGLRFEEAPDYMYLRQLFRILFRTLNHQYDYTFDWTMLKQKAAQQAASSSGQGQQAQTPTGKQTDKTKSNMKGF
T2 sequence (Q96SW2 whole entry): as the sequence (Q96SW2 whole entry) above
T2 sequence (Q16531 whole entry partner): as the sequence (Q16531 whole entry partner) above
T5 sequence (Q13422 whole entry): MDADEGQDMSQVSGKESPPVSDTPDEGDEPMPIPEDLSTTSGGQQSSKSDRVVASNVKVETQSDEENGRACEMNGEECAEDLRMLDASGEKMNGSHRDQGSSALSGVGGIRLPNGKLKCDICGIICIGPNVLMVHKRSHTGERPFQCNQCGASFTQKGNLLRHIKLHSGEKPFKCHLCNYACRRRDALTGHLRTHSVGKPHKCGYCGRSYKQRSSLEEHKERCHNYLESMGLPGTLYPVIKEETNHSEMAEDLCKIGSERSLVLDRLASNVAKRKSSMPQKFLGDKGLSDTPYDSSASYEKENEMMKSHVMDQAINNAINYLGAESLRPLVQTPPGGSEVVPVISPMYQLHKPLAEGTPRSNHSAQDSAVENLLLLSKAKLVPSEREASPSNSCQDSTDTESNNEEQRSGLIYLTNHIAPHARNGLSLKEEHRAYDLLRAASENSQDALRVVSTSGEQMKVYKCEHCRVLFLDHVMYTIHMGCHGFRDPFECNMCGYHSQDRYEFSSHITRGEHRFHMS
T5 sequence (Q96SW2 whole entry): as the sequence (Q96SW2 whole entry) above
T5 sequence (Q16531 whole entry partner): as the sequence (Q16531 whole entry partner) above
T7 sequence (Q96SW2 whole entry): as the sequence (Q96SW2 whole entry) above

Turning to `CC1(C)CCC(CN2CCC(Oc3ccc4c(c3)CN(C3CCC(=O)NC3=O)C4=O)C2)=C(c2ccc(Cl)cc2)C1` (stereo not shown) [GT-06815, 3-(5-((1-((4′-chloro-5,5-dimethyl-3,4,5,6-tetrahydro-[1,1′-biphenyl]-2-yl)methyl)pyrrolidin-3-yl)oxy)-1-oxoisoindolin-2-yl)piperidine-2,6-dione], the “substrate protein remaining %” value on IKZF2, on CK1α, on Wee1, at GSPT1, on IKZF1 and at IKZF3 was “A (0%≤ substrate protein remaining % ≤80%)” throughout. For the same molecule, the IC50 in the experiment on MV-4-11 lay in the range of 500 to 1000 nM; in experiment [1], 1000 to 1900 nM.
Regarding `CC1(C)CCC(CN2CCC3(CCC(Sc4ccc5c(c4)CN(C4CCC(=O)NC4=O)C5=O)CC3)CC2)=C(c2ccc(Cl)cc2)C1` (stereo not shown) [GT-06874, 3-(5-((3-((4′-chloro-5,5-dimethyl-3,4,5,6-tetrahydro-[1,1′-biphenyl]-2-yl)methyl)-3-azaspiro[5.5]undecan-9-yl)thio)-1-oxoisoindolin-2-yl)piperidine-2,6-dione], the “substrate protein remaining %” value at IKZF2, on CK1α, on Wee1, on GSPT1 and at IKZF3 was “A (0%≤ substrate protein remaining % ≤80%)” throughout. In addition, the values for the IC50 (in the experiment with MV-4-11; in experiment [1]) were 100 to 500 nM and 1000 to 1900 nM, respectively.
Consider `CC1(C)CCC(C(=O)N2CCC3(CC2)CC(Sc2ccc4c(c2)CN(C2CCC(=O)NC2=O)C4=O)C3)=C(c2ccc(Cl)cc2)C1` (stereo not shown) [GT-06918, 3-(5-((7-(4′-chloro-5,5-dimethyl-3,4,5,6-tetrahydro-[1,1′-biphenyl]-2-carbonyl)-7-azaspiro[3.5]nonan-2-yl)thio)-1-oxoisoindolin-2-yl)piperidine-2,6-dione], for which the “substrate protein remaining %” value at IKZF2, at Wee1, on IKZF1 and at IKZF3 was “A (0%≤ substrate protein remaining % ≤80%)” throughout. Also, the IC50 with MV-4-11 fell in the range of 100 to 500 nM; in experiment [1] it was 500 to 1000 nM.
Turning to `O=C1CCC(N2Cc3cc(OC4CC5(CCN(C(c6ccccc6)c6ccccc6)CC5)C4)ccc3C2=O)C(=O)N1` (stereo not shown) [GT-06956, 3-(5-((7-benzhydryl-7-azaspiro[3.5]nonan-2-yl)oxy)-1-oxoisoindolin-2-yl)piperidine-2,6-dione], the “substrate protein remaining %” value on IKZF2, on CK1α, on Wee1, at IKZF1 and at IKZF3 was “A (0%≤ substrate protein remaining % ≤80%)” in each case. In addition, the IC50 with MV-4-11 was 500 to 1000 nM; in experiment [1], less than 500 nM.

(Values after patent US20260207578A1, “COMPOUND BASED ON SULFUR/OXYGEN SUBSTITUTED GLUTARIMIDE-BASED ISOINDOLINONE SKELETON AND USE THEREOF” (Gluetacs Therapeutics (Shanghai) Co., LTD., priority 2022, published 2026).)
